Experimental data from US6676932B2, “Ultraviolet absorbent, photostabilizer, ultraviolet ray-absorbing composition, photostabilized composition and external preparation for skin” (Shiseido Co., Ltd., priority 2001, dated 2004).

Key:
[1] = Dye stabilization effect in blend with sequestering agents (Test Examples 212 to 275); assay type: physicochemical; details: daylight exposure (80 MJ)
Procedure, shortened: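 Colour difference (ΔE) measured by spectrophotometer in Lab coordinates before and after daylight exposure (80 MJ), relative to pre-exposure values (L1, a1, b1); appearance change also assessed visually.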

skin = test: Test of skin irritation: continuous application test (Test Example 3 i); assay type: in vivo, human; details: 10 wt % ultraviolet absorbent, twice daily for 4 weeks
Method: The same samples as in the Test Example 2 were used (at a 10 wt % amount of an ultraviolet absorbent).
Continuous application test was carried out for 20 healthy subjects per one group. An appropriate amount of each of the samples was coated twice daily for 4 weeks. The effects were assessed according to the following assessment standards.
Mean score was calculated for the determination of the effect on the basis of the following standards.
◯: mean score of more than 0 to less than 1.
Δ: mean score of 1 or more to less than 2.
x: mean score of 2 or more.

[2] = Dye stabilization effect under daylight exposure (Test Examples 6-91); assay type: physicochemical; set-up: key to Δ E: color difference ΔE in Lab vs. color before daylight exposure; key to Appearance (visual determination): ◯: no change; Δ: almost no change; x: change; details: photostabilizer 0.05 wt %, daylight exposure (80 MJ)
Procedure, shortened: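 Test samples exposed to daylight to 80 MJ; appearance judged visually. Colour measured by spectrophotometer in Lab coordinates, with ΔE calculated relative to pre-exposure values (L1, a1, b1).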

[3] = Stabilization effect on perfume under daylight exposure (Test Examples 92 to 181); assay type: physicochemical; set-up: key: ◯: no change; Δ: almost no change; x: change; details: daylight exposure (80 MJ)
Method: Each test sample was prepared for observation of the change of the odor of the test sample (determined by perfume coordinator) before and after daylight exposure (80 MJ).

[4] = Drug stabilization effect blended with sequestering agent (Test Examples 372 to 391); assay type: physicochemical; set-up: key to Appearance (visual determination): ◯: no change; Δ: almost no change; x: change; details: photostabilizer blend amount 0.03, daylight exposure (80 MJ)
Method: Then, the photostabilization effect of the pyridazine derivative in combination with sequestering agents on each drug and the change of the appearance of each composition were examined, by using the following formulation for assessment.
For observation of the change of the appearance of each test sample (determination based on visual observation) and the measurement of the remaining ratio by liquid chromatography before and after daylight exposure (80 MJ), the test sample was prepared.

[5] = Stability test in combination with inorganic powder-based ultraviolet shielding agent, sunscreen cream (Test Example 5); assay type: physicochemical; details: sunscreen cream with inorganic powders; ultraviolet absorbent 10.0 wt %; 50° C. for 2 months; visual observation
Method: A sunscreen cream of the following formulation was prepared and stored at 50° C. for 2 months. Under visual observation of the color change, the stability of the inventive pyridazine derivative in combination with inorganic powder-based ultraviolet screening agents commonly in blend as external preparations for skin for the purpose of ultraviolet prevention was examined.
After the ingredient 2 was added to the ingredient 1 to swell the ingredient 2, the ingredients 3 to 11 were mixed with the resulting mixture under heating, for sufficient dispersion and dissolution. While keeping the dispersion at 70° C., a solution of the mixture of the ingredients 12 to 15 was gradually added to the dispersion under thorough emulsification with a homomixer. The resulting mixture was cooled to 30° C. under sufficient stirring to prepare sunscreen creams.

[6] = Photostability test of aqueous solutions under daylight (Test Example 4); assay type: physicochemical; details: aqueous solution, daylight for 2 weeks (80 MJ); for Change of area under ultraviolet spectrum: 290 nm to 400 nm
Method: Aqueous solutions of the pyridazine derivative of the invention were exposed to daylight for 2 weeks (at a daylight exposure of 80 MJ). Subsequently, the remaining ratio and the change of the appearance were examined to measure the ultraviolet spectra with a spectrophotometer (solvent: water; concentration of 10 ppm and optical path length of 1 cm). The area under ultraviolet spectra curve from 290 nm to 400 nm were determined by integration to compare the area with the area before daylight exposure.
The remaining ratio and the change of the area under the ultraviolet spectrum were determined on the basis of the following standards.
⊚: 95% or more of those before daylight exposure.
◯: 90% or more to less than 95% of those before daylight exposure.
Δ: 70% or more to less than 90% of those before daylight exposure.
x: less than 70% of those before daylight exposure.

[7] = dye Blue 1 (Brilliant Blue FCF) 0.0001 wt %
[8] = dye Green 3 (Fast Green FCF) 0.001 wt %
[9] = dye Red 227 (Acid Fuchsine D) 0.0001 wt %
[10] = dye Yellow 5 (Sunset Yellow FCF) 0.001 wt %
[11] = dyes Red 213 (Rhodamine B) 0.00001 + Blue 1 (Brilliant Blue FCF) 0.00001 wt %
[12] = dyes Red 227 (Acid Fuchsine D) 0.0001 + Yellow 5 (Sunset Yellow FCF) 0.0001 wt %
[13] = dyes Red 401 (Violanin R) 0.0001 + Blue 1 (Brilliant Blue FCF) 0.00001 wt %
[14] = base perfume Spicy, photostabilizer 0.2 wt %
[15] = natural perfume Lavender oil, photostabilizer 0.1 wt %
[16] = natural perfume Ylang ylang oil, photostabilizer 0.2 wt %
[17] = synthetic perfume Citral, photostabilizer 0.1 wt %
[18] = synthetic perfume Linalool, photostabilizer 0.05 wt %
[19] = synthetic perfume Linalyl acetate, photostabilizer 0.1 wt %
[20] = dyes Red 106 (Acid red) 0.00001 + Yellow 203 (Quinoline Yellow WS) 0.0001 wt %

## Oc1nncc(N2CCCCC2)c1N1CCCCC1 [4,5-Dipiperidino-3-hydroxypyridazine]
[1]; dye Red 227 (Acid Fuchsine D) 0.0001, photostabilizer 0.01, no sequestering agent
  Δ E: 0.98
[1]; dye Red 227 (Acid Fuchsine D) 0.0001, photostabilizer 0.01, with ethylenediaminehydroxyethyl trisodium triacetate 0.02
  Δ E: 0.52
[1]; dye Red 227 (Acid Fuchsine D) 0.0001, photostabilizer 0.01, with ethylenediaminetetraacetate trisodium 0.02
  Δ E: 0.72
[1]; dye Red 227 (Acid Fuchsine D) 0.0001, photostabilizer 0.01, with sodium metaphosphate 0.02
  Δ E: 0.61
skin; cream
  Determination (skin reaction, continuous application test): ⊚ (mean score of 0)
skin; lotion
  Determination (skin reaction, continuous application test): ⊚ (mean score of 0)
[2]; [7]
  Appearance (visual determination): ◯
  Δ E: 1.22
[2]; [8]
  Appearance (visual determination): ◯
  Δ E: 0.45
[2]; [9]
  Appearance (visual determination): ◯
  Δ E: 0.53
[2]; [10]
  Appearance (visual determination): ◯
  Δ E: 0.55
[2]; [11]
  Appearance (visual determination): ◯
  Δ E: 1.11
[2]; [12]
  Appearance (visual determination): ◯
  Δ E: 0.63
[2]; [13]
  Appearance (visual determination): ◯
  Δ E: 0.38
[3]; base perfume Rose, photostabilizer 0.05 wt %
  odor determination: ◯
[3]; [14]
  odor determination: ◯
[3]; base perfume Woody, photostabilizer 0.1 wt %
  odor determination: ◯
[3]; [15]
  odor determination: ◯
[3]; natural perfume Rose oil, photostabilizer 0.05 wt %
  odor determination: ◯
[3]; [16]
  odor determination: ◯
[3]; [17]
  odor determination: ◯
[3]; [18]
  odor determination: ◯
[3]; [19]
  odor determination: ◯
[4]; drug Salicylic acid 0.1, no sequestering agent
  Appearance (visual determination): Δ
[4]; drug Salicylic acid 0.1, with ethylenediamine tetraacetate trisodium 0.03
  Appearance (visual determination): ◯
[5]
  Color change: no
[6]
  Remaining ratio: ⊚ (95% or more of those before daylight exposure)
  Change of area under ultraviolet spectrum: ⊚ (95% or more of those before daylight exposure)

## Oc1cc(N2CCOCC2)cnn1 [3-Hydroxy-5-morpholinopyridazine, 3-hydroxy-5-morpholinopyridazine]
[1]; dye Yellow 5 (Sunset Yellow FCF) 0.0001, photostabilizer 0.01, no sequestering agent
  Δ E: 0.61
[1]; dye Yellow 5 (Sunset Yellow FCF) 0.0001, photostabilizer 0.01, with ethylenediaminetetraacetate trisodium 0.03
  Δ E: 0.52
[1]; dye Yellow 5 (Sunset Yellow FCF) 0.0001, photostabilizer 0.01, with sodium metaphosphate 0.03
  Δ E: 0.55
[1]; dye Yellow 5 (Sunset Yellow FCF) 0.0001, photostabilizer 0.01, with sodium polyphosphate 0.03
  Δ E: 0.46
[1]; dyes Red 227 (Acid Fuchsine D) 0.0001 + Yellow 203 (Quinoline Yellow WS) 0.0001, no sequestering agent, photostabilizer blend amount 0.01
  Δ E: 1.68
[1]; dyes Red 227 (Acid Fuchsine D) 0.0001 + Yellow 203 (Quinoline Yellow WS) 0.0001, with sodium metaphosphate 0.02, photostabilizer blend amount 0.01
  Δ E: 0.98
skin; cream
  Determination (skin reaction, continuous application test): ⊚ (mean score of 0)
skin; lotion
  Determination (skin reaction, continuous application test): ⊚ (mean score of 0)
[2]; [7]
  Appearance (visual determination): ◯
  Δ E: 1.31
[2]; [8]
  Appearance (visual determination): ◯
  Δ E: 0.48
[2]; [9]
  Appearance (visual determination): ◯
  Δ E: 0.52
[2]; [10]
  Appearance (visual determination): ◯
  Δ E: 0.52
[2]; [20]
  Appearance (visual determination): ◯
  Δ E: 0.85
[2]; [11]
  Appearance (visual determination): ◯
  Δ E: 1.08
[2]; [13]
  Appearance (visual determination): ◯
  Δ E: 0.44
[3]; base perfume Muge, photostabilizer 0.05 wt %
  odor determination: ◯
[3]; [14]
  odor determination: ◯
[3]; natural perfume Jasmine oil, photostabilizer 0.05 wt %
  odor determination: ◯
[3]; [15]
  odor determination: ◯
[3]; [16]
  odor determination: ◯
[3]; [17]
  odor determination: ◯
[3]; [18]
  odor determination: ◯
[3]; [19]
  odor determination: ◯
[3]; synthetic perfume Rose oxide, photostabilizer 0.2 wt %
  odor determination: ◯
[4]; drug Glycyrrhizinic acid dipotassium 0.05, no sequestering agent
  Appearance (visual determination): ◯
[4]; drug Glycyrrhizinic acid dipotassium 0.05, with sodium metaphosphate 0.03
  Appearance (visual determination): ◯
[5]
  Color change: no
[6]
  Remaining ratio: ⊚ (95% or more of those before daylight exposure)
  Change of area under ultraviolet spectrum: ⊚ (95% or more of those before daylight exposure)
